Experimental data reported in US6703049B2, “Angiogenesis inhibitor” (priority 2000, dated 2004).
Where two headings read alike, the source gives them in different places.

Legend:
[1] = system: bovine capillary endothelial (BCE) cells; assay: Endothelial cell proliferation assay (bFGF-stimulated); assay type: cell-based
Experimental: Male Sprague-Dawley rats weighing 200 g were used as an experimental animal. Arsenolite (solid As4O6) was dissolved in water until it becomes a 1 mM of stock solution, and kept at the room temperature. Bovine capillary endothelial (BCE) cells were provided by Dr. Tae-Hee Lee (Lee, T. H., Rhim, T., and Kim, S. S. (1998). Prothromb inkringle-2 domain has a growth inhibitory activity against basic fibroblast growth factor-stimulated capillary endothelial cells. J. Biol. Chem 273, 28805-28812). BCE cells were preserved in Dulbecco's modified Eagle's medium (DMEM) supplemented with 10% heat-inactivated bovine calf serum (BCS; Hyclone Laboratories, Logan, Utah) L-glutamine (2 mM), penicillin (110 units/ml), streptomycin (100 μg/ml) and 1.5 ng/ml recombinant human basic fibroblast growth factor (bFGF; R&D Systems, Minneapolis, Minn.). Then, the cells were incubated at 37° C. under 10% CO2 condition. The cells between 10-15 passages were employed in this experiment.
Endothelial proliferation assay was performed as described by Cao et al. (Cao, Y., A., An, S. S. A., Ji, R. W., Davodson, D., Cao, Y., and Llinas, M. (1997) Kringle 5 of plasminogen is a novel inhibitor for endothelial cell growth. J. Biol. Chem. 271, 22924-22928). […] After 72 hours of incubation, the cells were trypsinized and counted using a hemocytometer. […]

[2] = system: bovine capillary endothelial (BCE) cells; assay: Chemotaxis assay in modified Boyden chambers (bFGF as chemoattractant); assay type: cell-based
Experimental: Chemotaxis assays were performed using modified Boyden chambers, which is equipped with polycarbonate nucleopore membrane (Boyden Chamber, Corning, Coring, N.Y.) described in Journal (Veronique Rigot, Maxime Lehmann, Frederic andre, Noucha Daemi, Jacques Marvaldi and Jose Luis: Integrin ligation and PKC activation are required for migration of colon carcinoma cells. Journal of cell science 111, 3119-3129 (1998)). Pre-coated filters (6.5 mm in diameter, 8 μm pore-size, Matrigel 100 μg/cm^2) were re-hydrated with 250 μl of medium, and 1×10^5 cells in 200 μl medium with or without arsenolite (at concentrations of 10 nM, 20 nM, 50 nM, 100 nM and 200 nM) in triple respectively were seeded into the upper part of each chamber, whereas the lower compartment was filled with 200 μl of serum free DMEM supplemented with 0.1% BSA and with (positive control) or without (negative control) 10 ng/ml bFGF as a chemoattractant. After the cells were incubated at 37° C. for 72 hours, non-migrated cells on the upper surface of the filter were wiped with a cotton swab, and migrated cells on the lower surface of the filter were fixed and stained with 0.125% Cumassie Blue in a mixture of methanol: acetic acid: water at the ratio of 45:10:45 by volume. Chemotaxis was determined by counting cells in five microscopic fields per well, and the extent of migration is expressed as an average number of cells per each microscopic field.

[3] = system: BCE cells; assay: Tube formation assay in 3-D fibrin gel culture; assay type: cell-based, bovine; settings: 100 nM, bFGF 10 ng/ml, 48 or 96 hours
Experimental: To investigate the effect of arsenolite on the maturation of angiogenesis, particularly, tubular structure formation of capillary endothelial cells, BCE cells were cultured using three dimensional cultures on the fibrin gel.
Fibrin gels were prepared by following a reported procedure (Bastaki M, Nelli E E, Dell'Era P, Rusnati M, Molinari-Tosatti M P, Parolini S, Auerbach R, Ruco L P, Possati L, Presta M, Basic fibrolast growth factor-induced angiogenic phenotype in mouse endothelium. A study of aortic and microvascular endothelial cell lines. Arterioscler Thromb Vasc Bio March 1997; 17(3): 454-64). Briefly, 2.5 mg/ml of fibrinogen (Calbiochem, San Diego, Calif.) was dissolved in DMEM and cultured BCE cells were added to a final concentration of 10^5 cells/ml, and clotting was then initiated by addition of thrombin (0.5 unit/ml). The mixture was immediately transferred into 24-well plates and allowed to form gel for 5 minutes at 37° C. Following get formation, 0.5 ml of medium with or without bFGF (10 ng/ml) and arsenolite (100 nM) per well were added. After 48 or 96 hours, tube formation was examined under inverted microscopy.

[4] = system: bFGF-induced rat corneal neovascularization; assay: Corneal micropocket angiogenesis assay; assay type: in vivo, Sprague Dawley rat; settings: oral; for bFGF-induced corneal neovascularization: 50 mg/kg/day for 7 days
Experimental: To further investigate the antiangiogenic activity of arsenolite in vivo, the inhibitory effect of systematically administered arsenolite on bFGF-induced neovascularization was studied. The corneal micropocket assay was performed by slight modification of a reported procedure (Polverim P J, Bouck N P, Rastinejad F. Assay and purification of naturally occurring inhibitor of angiogenesis, Methods Enzymol. 1991; 198: 440-450). That is, rats were anesthetized with ketamine. A corneal pocket was made by inserting a cataract knife, with the pocket's base 1-1.5 mm from the limbus. Pellets were made by mixing 30 μl of saline containing 2 μg of recombinant bFGF (R&D Systems, Minneapolis, Minn. U.S.A.) with 300 μg of sucralfate (Sigma, St. Louis, Mo., U.S.A.); this suspension was added to 30 μl of 12% (wt/vol) poly (2-hydroxyethyl methacylate) (Sigma, St. Louis, Mo., U.S.A.) in ethanol. Aliquots of this mixture were then pined onto Teflon pegs and allowed to dry producing approximately 17 pellets so that each pellet contains approximately 100 ng of bFGF. A pellet was implanted into corneal micropockets of each eye of an anesthetized male Sprague Dawley rat, followed by a single topical application of erythromycin ointment on the surface of the cornea. The animals were fed daily from the day of implantation by gastric lavage with 50 mg/kg of arsenolite powder for the treatment group, and the same foods and water without arsenolite for the control group. The corneal neovascularization in both eyes of all animals were examined daily with a slit lamp and the angiogenic responses were evaluated on day 7. The area of conical neovascularization was determined by measuring with a reticule the vessel length (L) from the limbus and the number of clock hours (C) of limbus involved as previously reported (D'Amato R I, Loughnan M S, Flynn E, Foulkman J, Thalidomide is an inhibitor of angiogenesis. Proc Natl Acad Sci USA Apr. 26, 1994; 91(9):4082-5). A formula was used to determine the area of a circular band segment: C/12×3.1416[r^2−(rL)^2], where r=5 mm, the measured radius of rat cornea.

[5] = Tolerability of treated rats in the corneal micropocket study; assay type: in vivo, Sprague Dawley rat; settings: oral, 50 mg/kg/day for 7 days
Experimental: To further investigate the antiangiogenic activity of arsenolite in vivo, the inhibitory effect of systematically administered arsenolite on bFGF-induced neovascularization was studied. The corneal micropocket assay was performed by slight modification of a reported procedure (Polverim P J, Bouck N P, Rastinejad F. Assay and purification of naturally occurring inhibitor of angiogenesis, Methods Enzymol. 1991; 198: 440-450). That is, rats were anesthetized with ketamine. A corneal pocket was made by inserting a cataract knife, with the pocket's base 1-1.5 mm from the limbus. […] The corneal neovascularization in both eyes of all animals were examined daily with a slit lamp and the angiogenic responses were evaluated on day 7. The area of conical neovascularization was determined by measuring with a reticule the vessel length (L) from the limbus and the number of clock hours (C) of limbus involved as previously reported (D'Amato R I, Loughnan M S, Flynn E, Foulkman J, Thalidomide is an inhibitor of angiogenesis. Proc Natl Acad Sci USA Apr. 26, 1994; 91(9):4082-5). A formula was used to determine the area of a circular band segment: C/12×3.1416[r^2−(rL)^2], where r=5 mm, the measured radius of rat cornea. […]

[6] = 28-day oral administration toxicity in rat; assay type: in vivo, Sprague Dawley rat
[7] = oral administration; cited from earlier work

**Q.** What does the source list for `O1[As]2O[As]3O[As]1O[As](O2)O3` [arsenolite, Tetraarsenic oxide]?
**A.** IC50 ([1]; 3 ng/ml bFGF, 72 hours incubation, cell count, read-out: inhibition of BCE cell proliferation, IC50): 99 nM; cell morphological changes associated with apoptotic endothelial cells (detachment, rounding, fragmentation) ([1]; after a 3-day incubation, 10 to 200 nM): No distinct cell morphological changes; IC50 ([2]; 10 ng/ml bFGF, 72 hours, read-out: inhibition of bFGF-induced invasiveness (chemotaxis), IC50): 48 nM; inhibition of bFGF-induced invasiveness (chemotaxis) ([2]; at 100 nM, 10 ng/ml bFGF, 72 hours): 83.4%; cell morphological changes associated with apoptotic endothelial cells (detachment, rounding, fragmentation) ([2]; chemotaxis assay, 10 to 200 nM): none of distinct cell morphological changes; generation of tubes by BCE cells [3]: reduced; bFGF-induced corneal neovascularization [4]: significantly inhibited; bFGF-induced corneal neovascularization ([4]; listed as angiogenesis inhibitor of the present invention): noticeably suppressed; density of corneal vessels compared with control animals ([4]; 50 mg/kg/day, day 7): markedly reduced; inhibition of clock hours of corneal circumferential neovascularization ([4]; 50 mg/kg/day, day 7): more than 60%; inhibition of vessel length of corneal neovascularization ([4]; 50 mg/kg/day, day 7): more than 60%; suppression of area of neovascularization ([4]; 50 mg/kg/day, day 7, area calculated from length and clock hours): approximately 90%; weight loss or unusual behavior over the course of the treatment [5]: did not experience weight loss or unusual behavior; side effect ([6]; oral 1 mg/kg for 28 days): none of side effect was observed; side effect ([6]; oral 10 mg/kg for 28 days): none of side effect was observed; histological alterations in kidney ([6]; oral 100 mg/kg for 28 days): only minor histological alterations was observed in kidney; side effect on gastrointestinal and liver ([6]; oral 100 mg/kg for 28 days): no side affect on gastrointestinal and liver

**Q.** For arsenic trioxide, which “side effect on gastrointestinal and liver” value [7] is on record?
**A.** caused serious side effect on gastrointestinal and liver
